Measurements from patent US20230192701A1, “BICYCLIC KINASE INHIBITORS AND USES THEREOF” (iOmx Therapeutics AG, priority 2020, published 2023).
≈ marks a conversion by molar mass, not a printed value. Entries after “also recorded” stand apart in the source; their conditions may differ. Where two headings read alike, the source gives them in different places.

Key:
SIK2 = SIK2 (Homo sapiens, UniProt Q9H0K1); experiment: radiometric protein kinase assay (33PanQinase Activity Assay), SIK2; type: biochemical; conditions: for IC50: ATP 1.0 μM, substrate RBER-CHKtide; for inhibiting SIK2 compared to PY1: in words
Chain of SIK2 (Q9H0K1 whole entry): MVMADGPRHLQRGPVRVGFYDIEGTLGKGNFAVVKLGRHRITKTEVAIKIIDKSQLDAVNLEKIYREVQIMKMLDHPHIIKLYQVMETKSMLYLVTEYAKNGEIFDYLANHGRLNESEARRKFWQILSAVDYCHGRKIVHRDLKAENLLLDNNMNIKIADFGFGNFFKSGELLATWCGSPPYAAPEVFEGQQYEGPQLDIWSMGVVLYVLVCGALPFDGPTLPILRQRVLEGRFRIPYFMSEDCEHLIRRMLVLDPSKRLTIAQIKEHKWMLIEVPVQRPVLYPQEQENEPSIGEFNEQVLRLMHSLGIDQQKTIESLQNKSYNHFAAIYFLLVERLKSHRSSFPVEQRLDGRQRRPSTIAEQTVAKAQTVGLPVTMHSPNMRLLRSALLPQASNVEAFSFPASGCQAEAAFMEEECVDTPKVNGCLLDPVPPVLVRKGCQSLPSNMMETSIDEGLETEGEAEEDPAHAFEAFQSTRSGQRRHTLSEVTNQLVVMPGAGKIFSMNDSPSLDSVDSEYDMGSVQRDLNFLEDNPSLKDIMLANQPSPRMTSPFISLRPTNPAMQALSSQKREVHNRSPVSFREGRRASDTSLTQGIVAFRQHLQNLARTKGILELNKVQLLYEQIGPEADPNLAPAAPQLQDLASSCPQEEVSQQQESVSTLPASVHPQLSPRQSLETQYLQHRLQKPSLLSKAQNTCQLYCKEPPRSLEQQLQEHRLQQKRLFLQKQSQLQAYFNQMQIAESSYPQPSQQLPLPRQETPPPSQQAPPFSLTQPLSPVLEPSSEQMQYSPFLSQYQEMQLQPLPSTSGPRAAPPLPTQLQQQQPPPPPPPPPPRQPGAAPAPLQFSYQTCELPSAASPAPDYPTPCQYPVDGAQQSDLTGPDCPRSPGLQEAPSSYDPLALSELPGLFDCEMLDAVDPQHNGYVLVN
Description: (§1) The IC50s of the compounds against the SIK family of protein-serine/threonine kinases (SIK2 and SIK3) were determined as followed. Briefly, a radiometric protein kinase assay (33PanQinase® Activity Assay) was used for measuring the kinase activity of the two protein kinases. The kinase assays were performed in 96-well FlashPlates™ from PerkinElmer (Boston, Mass., USA) in a 50 uL reaction volume. The reaction cocktail was pipetted in four steps in the following order: • […] (standard buffer/[gamma-33P]-ATP) • 10 uL of ATP solution (in water) • 5 uL of test compound (in 10% DMSO) • 20 uL enzyme/substrate mix
(§2) The following amounts of enzyme and applicable substrate were used per well:
(§3) The reaction cocktails were incubated at 30 °C for 60 minutes. The reaction was stopped with 50 uL of 2% (v/v) H3PO4, plates were aspirated and washed two times with 200 μL 0.9% (w/v) NaCl. Incorporation of 33Pi was determined with a microplate scintillation counter (Microbeta, Wallac). All assays were performed with a BeckmanCoulter/SAGIAN™ Core System.

SIK3 = SIK3 (Homo sapiens, UniProt Q9Y2K2); experiment: radiometric protein kinase assay (33PanQinase Activity Assay), SIK3; type: biochemical; conditions: for IC50: ATP 1.0 μM, substrate RBER-CHKtide; for inhibiting SIK3 compared to PY1: in words
Chain of SIK3 (Q9Y2K2 whole entry): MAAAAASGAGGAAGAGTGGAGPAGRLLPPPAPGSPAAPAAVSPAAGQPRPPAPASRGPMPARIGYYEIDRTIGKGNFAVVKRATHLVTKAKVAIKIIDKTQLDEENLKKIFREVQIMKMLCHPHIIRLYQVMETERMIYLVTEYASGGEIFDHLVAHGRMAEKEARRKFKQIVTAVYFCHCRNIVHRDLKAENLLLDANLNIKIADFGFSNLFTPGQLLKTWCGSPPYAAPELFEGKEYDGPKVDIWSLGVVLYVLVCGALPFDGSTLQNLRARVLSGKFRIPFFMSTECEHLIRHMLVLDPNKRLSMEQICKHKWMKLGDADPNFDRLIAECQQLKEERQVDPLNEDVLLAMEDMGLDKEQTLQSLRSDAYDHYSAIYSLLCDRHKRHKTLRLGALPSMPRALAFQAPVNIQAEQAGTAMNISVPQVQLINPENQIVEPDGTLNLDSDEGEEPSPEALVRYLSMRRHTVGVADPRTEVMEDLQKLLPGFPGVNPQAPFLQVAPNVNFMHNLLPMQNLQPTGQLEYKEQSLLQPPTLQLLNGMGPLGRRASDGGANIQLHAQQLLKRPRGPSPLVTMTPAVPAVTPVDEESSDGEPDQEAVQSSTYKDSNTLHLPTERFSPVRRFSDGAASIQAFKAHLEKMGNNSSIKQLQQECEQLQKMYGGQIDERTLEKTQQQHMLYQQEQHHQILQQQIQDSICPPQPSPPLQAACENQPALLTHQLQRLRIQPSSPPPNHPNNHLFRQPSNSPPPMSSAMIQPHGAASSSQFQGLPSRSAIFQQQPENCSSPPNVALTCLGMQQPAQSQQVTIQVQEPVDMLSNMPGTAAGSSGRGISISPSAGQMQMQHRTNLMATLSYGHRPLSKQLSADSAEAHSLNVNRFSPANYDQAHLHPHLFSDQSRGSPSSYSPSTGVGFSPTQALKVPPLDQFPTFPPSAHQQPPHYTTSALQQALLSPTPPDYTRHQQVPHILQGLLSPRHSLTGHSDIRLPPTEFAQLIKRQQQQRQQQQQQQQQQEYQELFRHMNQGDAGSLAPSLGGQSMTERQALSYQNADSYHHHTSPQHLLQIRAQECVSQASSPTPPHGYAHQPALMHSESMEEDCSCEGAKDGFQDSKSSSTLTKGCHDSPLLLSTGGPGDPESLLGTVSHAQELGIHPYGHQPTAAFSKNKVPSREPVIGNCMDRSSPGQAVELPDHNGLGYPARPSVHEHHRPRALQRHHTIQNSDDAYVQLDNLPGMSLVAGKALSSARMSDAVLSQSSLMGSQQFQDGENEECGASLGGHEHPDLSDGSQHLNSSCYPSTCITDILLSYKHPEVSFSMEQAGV
Description: as §1, §2, §3

MC38 tumour cells = experiment: TNF-sensitised cell viability assay (CellTiter-Glo), MC38; type: cell-based, murine; conditions: 100 ng/ml rMuTNF, 72 h
Description: (§4) Cell viability of HCT116 tumour cells was measured using the CellTiter-Glo (CTG) luminescent cell viability assay (Promega, Madison, USA) according to the manufacturer's protocol. In short, 1×10^3 HCT116 cells were seeded in a 384-well plate for 24 h and subsequently treated with different concentrations of compounds and 10 ng/ml rHuTNF for 72 h at 37° C. and 5% CO2. After incubation, CTG reagent was added to the wells and cells were lysed for 10 min. Read-out was performed using the Tecan reader with 0.1 sec counting time. TNF-induced cell killing in human PANC1 and murine MC38 tumour cells was measured analogously to the assay in human HCT116 cells, except that for the PANC1 assay 100 ng/ml rHuTNF and for the MC38 assay 100 ng/ml rMuTNF were used.

Kinetic solubility assay = type: physicochemical; conditions: aqueous buffer, kinetic from dmso stock; PBS buffer pH 7.4, 1.0% DMSO, 24 h at RT
Description: The Kinetic solubility assay was conducted as follows. 4 uL compound of the 50 mM DMSO stock was added to deep well plate containing 396 uL PBS buffer (pH 7.4). The DMSO content in the sample was 1.0%, and the compound concentration 500 μM. The sample plate was vortexed at 800 rpm for 24 h at RT on a thermomixer. At the end of the incubation period, the sample plate was centrifuged at 4000 rpm for 10 mins. 3 uL of supernatant was transferred to well containing 297 uL of ISTD in Acetonitrile water:50:50, v/v and analysed in LC-MS/MS against a calibration curve (CC).

[1] = Human liver microsomal stability; type: in vitro ADME; conditions: pH 7.4; human liver microsomes, NADPH, 37°C
Description: (§5) Briefly, human and liver microsomal stability was determined by pre-incubation of 2.5 uL compound and 75 uL of the respective liver microsomes in potassium phosphate buffer (pH 7.4) at 37° C. After adding of NADPH as cofactor and further incubation at 37° C. for 60 min, acetonitrile containing internal standard was added, and the sample was vortexed for 5 min at 1200 rpm and then centrifuged 10 min at 4000 rpm.
(§6) LC-MS/MS was performed for all assays using a C18 column (50*4.6 mm, 5 um) for the CaCo2 assay, or a C18 column (50*4.6 mm, 4 um) for the other assays. The mobile phases used were 10 mM Ammonium Acetate with 0.1% Formic acid (aqueous) and 100% Acetonitrile (organic).

[2] = Mouse liver microsomal stability; type: in vitro ADME; conditions: pH 7.4; mouse liver microsomes, NADPH, 37°C
Description: as §5, §6

[3] = Human hepatocyte stability; type: in vitro ADME; conditions: human hepatocytes, 37°C
Description: (§7) Determination of human and mice hepatocyte stability was conducted as follows. 200 uL of the respective hepatocyte cell suspension (2×10e6/ml) was preincubated at 37° C. for 10 min. Then, 200 uL of a 2 uM working stock of the test compound was added to the hepatocyte cell suspension, and the mixture was further incubated at 37° C. and 500 rpm. The reaction was stopped at 30, 60 and 120 min by precipitating 50 uL of the incubation mixture with 200 uL of acetonitrile. Samples were vortexed for 5 min at 1200 rpm and centrifuged at 4000 rpm for 10 min. Intrinsic clearance and half-life were analysed using LC-MS/MS.
as §6

[4] = Mouse hepatocyte stability; type: in vitro ADME; conditions: mouse hepatocytes, 37°C
Description: as §7, §6

[5] = Human plasma-protein binding (RED method); type: in vitro ADME
Description: (§8) Human and mice protein plasma binding was determined using the Plasma Protein Binding by RED Method. Briefly, 200 uL of the respective plasma containing the test compound (10 uM) was spiked into the donor well (RED Chamber) of the insert. 350 uL of PBS was spiked into receiver well (white chamber). The plate was incubated at 37° C. in a thermomixer at 400 rpm for 5 hours. The samples were matrix equilibrated with opposite matrix (25 uL blank buffet/Plasma). Matrix matched samples were precipitated with 200 uL of Acetonitrile containing Internal standard. Samples were vortexed at 1000 rpm for 5 min and centrifuged at 4000 rpm for 10 min. The supernatant was diluted 2 folds with water and % bound and unbound protein and % recovery at 5 h was determined by LC-MS/MS.
as §6

[6] = Murine plasma protein binding (RED method); type: in vitro ADME; conditions: mouse
Description: as §8, §6

[7] = CaCo2 permeability and efflux assay; type: in vitro ADME; conditions: human, Caco-2; CaCo2, mean efflux ratio
Description: (§9) To determine apparent permeability of the compounds an assay using a Caco-2 cells monolayer (cultured for 21d) in a 24-well format (poly carbonate high pore density plate with 0.4 μm pore size and a 0.7 cm2 active membrane area; Millipore) was performed as followed. 800 uL of DMEM was added to the basal compartment of the 24 well-plate and 60000 CaCo2 cells/well were seeded in the apical wells and incubated in a CO2 incubator at 37° C. for proliferation of cells. Apical to Basal permeability was determined by adding 400 uL of test compound to the apical well and 800 uL of HBSS buffer with 2% BSA to the basal well. 25 uL of basal sample was collected after 120 min and processed as stated below. Basal to Apical permeability was determined by adding 800 uL of test compound to basal well and 400 uL of HBSS buffer with 2% BSA to apical well. 25 uL of apical sample was collected after 120 min and processed as stated below. The samples were processed by diluting the donor samples 1:1 with HBSS containing 2% BSA and the receiver samples 1:1 with HBSS buffer. Samples were then precipitated with 200 uL of acetonitrile containing internal standard, vortexed for 5 min at 1000 rpm, and centrifuged at 4000 rpm for 20 min. 150 uL of supernatant was diluted with 150 uL of water and submitted for LC-MS/MS analysis, and Bi-directional (A-B and B-A) apparent permeability (Papp) was calculated.
as §6

Caco-2 cells monolayer = experiment: CaCo2 permeability and efflux assay; type: in vitro ADME; conditions: CaCo2, apical to basal, 120 min
Description: as §9, §6

[8] = molecular target: 335 wild-type protein kinases; experiment: single-point inhibition assays, residual activity (ProQinase Kinase Profiler); type: biochemical; conditions: single-point 0.1 uM and 1 uM, 335 kinases
Description: Several compounds of Formula (I) described herein were also tested in single-point (0.1 uM and 1 uM) inhibition assays over a diverse set of 335 wild-type protein (ProQinase “Kinase Profiler”; ProQinase, Freiburg, Germany), in which the residual activity of each kinase was determined. […] Secondly, the residual activity of each kinase was compared to other compounds tested (in particular, against the prior art compounds PY1) by use of scatter plots.

HCT116 and PANC1 = experiment: toxicity against the cell lines in the absence of TNF; type: cell-based; conditions: 0 ng/mL TNF, up to concentrations of 10 uM
Description: Typically, those compounds of Formula (I) tested were less toxic against the cell lines than the prior art compound PY1 when tested (eg, in the absence of TNF), especially against the human cell lines such as HCT116 (data not shown).
as §4

HCT116 tumour cells = experiment: TNF-sensitised cell viability assay (CellTiter-Glo), HCT116; type: cell-based, human
Description: as §4

PANC1 tumour cells = experiment: TNF-sensitised cell viability assay (CellTiter-Glo), PANC1; type: cell-based, human
Description: as §4

[9] = Mus musculus, MC-38, read-out: MC38 IC50 (at 100 ng/ml rMuTNF)

IC50 (SIK2) [nM] | IC50 (SIK3) [nM] | solubility kinetic at 24 h (Kinetic solubility assay) [µM] | half-life [1] [min] | half-life [2] [min] | half-life at 1 uM [3] [min] | half-life at 1 uM [4] [min] | recovery at 5 h, 10 uM [5] [%] | recovery at 5 h, 10 uM [6] [%] | efflux ratio at 120 min [7] | A > B(10 EE-06 cm/s) (Caco-2 cells monolayer) | kinases inhibited less strongly than by PY1 [8] | Structure (SMILES) | inhibiting SIK2 compared to PY1 (SIK2) | inhibiting SIK3 compared to PY1 (SIK3) | IC50 (MC38 tumour cells; [9]) [µM] | overall kinase profile compared to prior art compound PY1 [8] | toxicity against the cell lines in the absence of TNF (HCT116 and PANC1) | other results
< 50 | < 50 | 9.1 (≈ 5.57 µg/mL) | 12 | 10 | 186 | 82 | 32 | 38 | 2.7 | 12.9 10 EE-06 cm/s | – | COc1ccc(N2C(=O)N(c3c(C(F)F)csc3Cl)Cc3cnc(Nc4ccc(C5CCN(C)CC5)cc4)nc32)nc1 [AA2, 3-(2-chloro-4-(difluoromethyl)thiophen-3-yl)-l-(5-methoxypyridin-2-yl)-7-((4-(l-methylpiperidin-4-yl)phenyl)amino)-3,4-dihydropyrimido[4,5-d]pyrimidin-2(1H)-one] | superior in inhibiting SIK2 and SIK3 compared to PY1 | superior in inhibiting SIK2 and SIK3 compared to PY1 | 0.5 to 1 | – | – | –
< 50 | < 50 | 9.1 (≈ 5.41 µg/mL) | 16 | 20 | 42 | 108 | 34 | 45 | 2.9 | 8.4 10 EE-06 cm/s | SRMS, NLK, RIPK5, LTK and ALK | COc1ccc(N2C(=O)N(c3c(CF)csc3Cl)Cc3cnc(Nc4ccc(C5CCN(C)CC5)cc4)nc32)nc1 [AA3, 3-(2-chloro-4-(fluoromethyl)thiophen-3-yl)-l-(5-methoxypyridin-2-yl)-7-((4-(l-methylpiperidin-4-yl)phenyl)amino)-3,4-dihydropyrimido[4,5-d]pyrimidin-2(1H)-one] | superior in inhibiting SIK2 and SIK3 compared to PY1 | superior in inhibiting SIK2 and SIK3 compared to PY1 | 0.5 to 1 | potent inhibitor of surprisingly more kinases than prior art compound PY1 | – | kinases inhibited more strongly than by PY1 [8]: TAOK2, SYK, TYRO3, ACVR2B, MEKK2, AXL, ITK, MAP3K11, TRKA, MERTK, ZAP70, and MEKK2, and in particular CSF1R, HCK, TXK, YES, LCK, SRC, EPHA1 and FGR
400 to 800 | 800 to 1000 | – | – | – | – | – | – | – | – | – | FYN, BTK, EPHB2, LCK and CSK | COc1ccc(N2C(=O)N(c3c(C)noc3C)Cc3cnc(Nc4ccc(C5CCN(C)CC5)cc4OC)nc32)nc1 [AA5, 3-(3,5-dimethylisoxazol-4-yl)-7-((2-methoxy-4-(1-methylpiperidin-4-yl)phenyl)amino)-1-(5-methoxypyridin-2-yl)-3,4-dihydropyrimido[4,5-d]pyrimidin-2(1H)-one] | – | – | – | potently inhibited far fewer kinases than prior art compound PY1 | essentially non-toxic | relevant kinases still potently inhibited [8]: TXK, ERBB4, EPHB1, FRK, BRK, EPHA4, ACK1, EGFR, EPHA1 and SIK1; also recorded: reasonably potent against CSF1R

Structure (SMILES) | IC50 (SIK2) [nM] | IC50 (SIK3) [nM] | solubility kinetic at 24 h (Kinetic solubility assay) [µM] | half-life [1] [min] | half-life [2] [min] | half-life at 1 uM [3] [min] | half-life at 1 uM [4] [min] | recovery at 5 h, 10 uM [5] [%] | recovery at 5 h, 10 uM [6] [%] | efflux ratio at 120 min [7] | A > B(10 EE-06 cm/s) (Caco-2 cells monolayer) | kinases inhibited less strongly than by PY1 [8] | inhibiting SIK2 compared to PY1 (SIK2) | inhibiting SIK3 compared to PY1 (SIK3) | IC50 (MC38 tumour cells; [9]) [µM] | overall kinase profile compared to prior art compound PY1 [8] | toxicity against the cell lines in the absence of TNF (HCT116 and PANC1) | other results
COc1ccc(N2C(=O)N(c3c(CF)csc3Cl)Cc3cnc(Nc4ccc(N5CCN(C)CC5)cc4)nc32)nc1 [AA6, 3-(2-chloro-4-(fluoromethyl)thiophen-3-yl)-1-(5-methoxypyridin-2-yl)-7-((4-(4-methylpiperazin-1-yl)phenyl)amino)-3,4-dihydropyrimido[4,5-d]pyrimidin-2(l H)-one] | < 50 | < 50 | – | – | – | – | – | – | – | – | – | – | superior in inhibiting SIK2 and SIK3 compared to PY1 | superior in inhibiting SIK2 and SIK3 compared to PY1 | – | – | essentially non-toxic | sensitisation of HCT116 tumour cells to the cytotoxic effect of TNF compared to PY1 (HCT116 tumour cells; in words): much stronger effect compared to the prior art compound PY1; IC50 (HCT116 tumour cells; read-out: HCT116 IC50 (at 10 ng/ml rHuTNF), 10 ng/ml rHuTNF, 72 h): < 0.1 µM; sensitisation of PANC tumour cells to the cytotoxic effects of TNF compared to PY1 (PANC1 tumour cells; in words): stronger effect than PY1; IC50 (PANC1 tumour cells; read-out: PANC IC50 (at 100 ng/ml rHuTNF), 100 ng/ml rHuTNF, 72 h): 0.1 to 0.5 µM; IC50 (MC38 tumour cells; read-out: MC38 IC50 (at 100 ng/ml rMuTNF)): 0.5 to 1 µM
